From patent US12599597B2, “Substituted N-benzhydrylacetamide inhibitors of jumanji domain histone demethylases for the treatment of cancer” (University of Kentucky Research Foundation, priority 2020, dated 2026)

What was measured:
Assay in all cases: Histone demethylase assay, purified enzyme panel
Type in all cases: biochemical
Conditions in all cases: Reference inhibitor
FBXL10 (KDM2B) = target: T1, FBXL10 (KDM2B) (Homo sapiens, UniProt Q8NHM5)
T1 sequence (Q8NHM5 1-1336): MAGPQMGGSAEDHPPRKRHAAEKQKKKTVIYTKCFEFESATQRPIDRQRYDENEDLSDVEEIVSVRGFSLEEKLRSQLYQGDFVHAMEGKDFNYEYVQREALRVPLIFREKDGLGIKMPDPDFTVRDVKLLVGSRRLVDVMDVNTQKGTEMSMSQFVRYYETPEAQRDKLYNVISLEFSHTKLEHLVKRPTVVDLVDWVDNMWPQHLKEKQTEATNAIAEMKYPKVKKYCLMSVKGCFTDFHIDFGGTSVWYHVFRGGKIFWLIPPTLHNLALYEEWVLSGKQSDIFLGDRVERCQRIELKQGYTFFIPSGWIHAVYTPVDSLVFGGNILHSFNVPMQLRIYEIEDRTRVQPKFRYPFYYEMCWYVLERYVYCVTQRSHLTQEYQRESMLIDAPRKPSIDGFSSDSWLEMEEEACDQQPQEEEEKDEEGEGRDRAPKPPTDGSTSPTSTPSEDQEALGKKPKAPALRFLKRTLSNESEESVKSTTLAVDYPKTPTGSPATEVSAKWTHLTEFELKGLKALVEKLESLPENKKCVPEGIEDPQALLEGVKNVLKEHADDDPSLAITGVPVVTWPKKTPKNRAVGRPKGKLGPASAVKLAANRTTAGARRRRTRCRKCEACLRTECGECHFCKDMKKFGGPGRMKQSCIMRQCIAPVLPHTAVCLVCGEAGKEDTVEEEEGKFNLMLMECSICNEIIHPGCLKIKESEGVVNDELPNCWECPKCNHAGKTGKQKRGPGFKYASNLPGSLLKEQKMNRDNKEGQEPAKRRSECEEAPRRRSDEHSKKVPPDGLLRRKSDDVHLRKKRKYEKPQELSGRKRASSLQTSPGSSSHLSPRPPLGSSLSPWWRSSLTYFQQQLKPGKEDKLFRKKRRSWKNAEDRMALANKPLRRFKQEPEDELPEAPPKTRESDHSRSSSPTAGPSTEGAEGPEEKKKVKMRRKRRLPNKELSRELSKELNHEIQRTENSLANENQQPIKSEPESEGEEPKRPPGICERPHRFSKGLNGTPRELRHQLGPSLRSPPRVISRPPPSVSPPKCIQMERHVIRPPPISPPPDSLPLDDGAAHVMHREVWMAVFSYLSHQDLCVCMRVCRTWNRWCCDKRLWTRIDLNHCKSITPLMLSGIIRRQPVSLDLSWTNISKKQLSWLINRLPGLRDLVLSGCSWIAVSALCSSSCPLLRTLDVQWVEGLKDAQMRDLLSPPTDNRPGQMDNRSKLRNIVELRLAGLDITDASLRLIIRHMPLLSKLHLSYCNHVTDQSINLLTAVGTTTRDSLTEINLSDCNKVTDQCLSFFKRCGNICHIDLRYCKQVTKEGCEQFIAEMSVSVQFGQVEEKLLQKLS
Excerpt: (§1) Histone Demethylase Assay
(§2) To further examine the effects of 58B1 on histone demethylase, we screened a panel of purified histone demethylases was screened.

JMJD2C (KDM4C) = target: T2, JMJD2C (KDM4C) (Homo sapiens, UniProt Q9H3R0)
T2 sequence (Q9H3R0 1-1056): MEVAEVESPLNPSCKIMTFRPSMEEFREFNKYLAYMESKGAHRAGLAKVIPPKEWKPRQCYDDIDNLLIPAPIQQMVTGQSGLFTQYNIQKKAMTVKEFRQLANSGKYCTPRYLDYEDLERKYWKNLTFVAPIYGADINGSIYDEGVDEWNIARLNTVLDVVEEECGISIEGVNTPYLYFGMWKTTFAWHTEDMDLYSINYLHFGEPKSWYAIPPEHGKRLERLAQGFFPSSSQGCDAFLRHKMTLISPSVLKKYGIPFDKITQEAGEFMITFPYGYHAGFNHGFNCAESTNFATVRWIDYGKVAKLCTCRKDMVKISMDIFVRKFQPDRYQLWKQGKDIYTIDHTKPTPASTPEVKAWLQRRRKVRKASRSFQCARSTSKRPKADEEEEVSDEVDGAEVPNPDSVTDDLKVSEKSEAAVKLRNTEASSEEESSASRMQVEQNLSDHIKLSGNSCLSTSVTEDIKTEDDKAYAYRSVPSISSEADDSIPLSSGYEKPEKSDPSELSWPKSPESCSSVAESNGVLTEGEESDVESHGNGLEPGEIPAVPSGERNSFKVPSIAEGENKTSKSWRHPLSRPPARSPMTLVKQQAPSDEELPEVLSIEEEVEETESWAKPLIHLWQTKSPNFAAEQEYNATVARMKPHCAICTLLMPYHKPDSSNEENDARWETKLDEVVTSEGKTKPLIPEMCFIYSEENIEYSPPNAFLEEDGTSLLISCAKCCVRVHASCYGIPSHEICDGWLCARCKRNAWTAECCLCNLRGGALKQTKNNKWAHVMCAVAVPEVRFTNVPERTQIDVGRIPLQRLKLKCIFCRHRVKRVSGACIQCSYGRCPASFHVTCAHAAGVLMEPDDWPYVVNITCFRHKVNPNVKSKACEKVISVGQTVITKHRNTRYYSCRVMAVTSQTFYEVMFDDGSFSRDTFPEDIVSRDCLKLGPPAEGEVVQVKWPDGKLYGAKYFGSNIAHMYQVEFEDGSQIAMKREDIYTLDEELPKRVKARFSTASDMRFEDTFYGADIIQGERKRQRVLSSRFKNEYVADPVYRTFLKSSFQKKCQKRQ
Excerpt: as §1, §2

JMJD2A (KDM4A) = target: T3, JMJD2A (KDM4A) (Homo sapiens, UniProt O75164)
T3 sequence (O75164 1-1064): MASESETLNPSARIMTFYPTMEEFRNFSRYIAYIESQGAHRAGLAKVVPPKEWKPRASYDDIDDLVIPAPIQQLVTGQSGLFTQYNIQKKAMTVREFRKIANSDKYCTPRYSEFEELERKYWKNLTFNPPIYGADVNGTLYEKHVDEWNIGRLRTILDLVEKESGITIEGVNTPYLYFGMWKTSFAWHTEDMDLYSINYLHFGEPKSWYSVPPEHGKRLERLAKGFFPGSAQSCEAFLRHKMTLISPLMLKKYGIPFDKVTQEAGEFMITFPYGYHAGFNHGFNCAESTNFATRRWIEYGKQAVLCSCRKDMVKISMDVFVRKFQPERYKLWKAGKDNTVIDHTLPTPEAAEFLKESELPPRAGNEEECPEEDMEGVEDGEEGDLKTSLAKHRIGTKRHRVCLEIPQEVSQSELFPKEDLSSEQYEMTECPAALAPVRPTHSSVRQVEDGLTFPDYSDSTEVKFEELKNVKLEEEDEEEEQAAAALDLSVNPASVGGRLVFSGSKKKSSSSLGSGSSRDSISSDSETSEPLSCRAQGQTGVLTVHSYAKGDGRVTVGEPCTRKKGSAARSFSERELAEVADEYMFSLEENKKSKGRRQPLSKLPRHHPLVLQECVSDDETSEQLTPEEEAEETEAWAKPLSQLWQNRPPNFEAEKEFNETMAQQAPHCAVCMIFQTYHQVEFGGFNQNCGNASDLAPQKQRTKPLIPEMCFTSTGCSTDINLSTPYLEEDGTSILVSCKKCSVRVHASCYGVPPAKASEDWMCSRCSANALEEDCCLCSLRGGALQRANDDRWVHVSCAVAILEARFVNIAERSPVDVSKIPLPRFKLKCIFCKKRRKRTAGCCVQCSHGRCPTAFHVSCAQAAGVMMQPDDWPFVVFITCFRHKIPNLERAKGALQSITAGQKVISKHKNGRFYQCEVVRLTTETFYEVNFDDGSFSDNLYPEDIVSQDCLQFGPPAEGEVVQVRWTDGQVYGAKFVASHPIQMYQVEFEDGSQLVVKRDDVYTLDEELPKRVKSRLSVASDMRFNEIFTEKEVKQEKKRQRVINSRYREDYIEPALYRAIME
Excerpt: as §1, §2

O=C(O)c1ccnc(C(=O)O)c1 [2,4-Pyridine Dicarboxylic Acid, reference compound]
% Inhibition (FBXL10 (KDM2B)): 99% | % Inhibition (JMJD2C (KDM4C)): 100% | % Inhibition (JMJD2A (KDM4A)): 100%
